The record followed here is USRE30241E, “Esters of 3-(hydroxy or hydroxymethyl)-4-hydroxyphenyl aminomethyl ketones” (Sterling Drug Inc., priority 1970, dated 1980).

Read-outs that look alike come from different tables or passages of the source.

In experiment [1] the test system is carbachol- or histamine-induced bronchoconstriction. The experiment in a line: Bronchodilator Test Method I, anesthetized dog, intraduodenal activity. As to conditions: Canis lupus familiaris, read-out: Bronchodilation; for inhibition in vivo at 0.068 mg/kg: 68 mcg/kg (salt) intraduodenal; for inhibition in vivo at 0.136 mg/kg: 136 mcg/kg (salt) intraduodenal; for inhibition in vivo at 0.032 mg/kg: 32 mcg/kg (salt) intraduodenal; for inhibition in vivo at 0.128 mg/kg: 128 mcg/kg (salt) intraduodenal. In kind it is in vivo. On the procedure:
Male and female dogs weighing 9-18 kg. each were anesthetized with pentobarbital sodium (30 mg./kg. i.v.). Each animal, with thorax opened at the midsternum, was maintained under artificial ventilation using a constant volume pump (250 ml./stroke; 10 to 12 strokes per minute) attached to the tracheal cannula. The flow of air was controlled by a glass or plastic valve which closed and opened respectively on inflow and outflow of the air to and from the tracheal cannula. Bronchoconstriction and/or bronchodilatation were measured from changes in the basal airway pressure reflected by a transducer attached to the sidearm of the cannula relayed to a polygraph.
Control bronchoconstrictions were induced by intravenous injections of carbachol (choline chloride carbamate) in doses ranging from 4 to 6 micrograms per kilogram or histamine diphosphate in doses ranging from 35 to 45 micrograms per kilogram. In the majority of test animals, the above doses of constrictor agents produced a 100-200 percent increase in the normal airway pressure or amplitude.
Injections were repeated at 20-30 minutes.
In intraduodenal studies, in the dog prepared for bronchodilation measurements, the duodenal segment of the small intestine was made easily accessible through a small mid-line incision in the abdomen. The test solution was injected into the duodenum using a fine needle. Commencing 5 minutes after medication, the degree and duration of bronchodilation were tested by injecting a control dose of carbachol or histamine at intervals of 30-60 minutes until the recovery or near-recovery was apparent. In some dogs showing an early recovery, a reference drug was also tested in the same dog 1.5-2 hours after the first medicine.

Experiment [2] has the same test system. The experiment can be described thus: Bronchodilator Test Method I, anesthetized dog, intravenous activity. The experiment is classed as in vivo. The conditions noted are these: Canis lupus familiaris, read-out: Bronchodilatation; for inhibition in vivo at 0.068 mg/kg: 68 mcg/kg i.v.; for inhibition in vivo at 0.137 mg/kg: 137 mcg/kg i.v.; for inhibition in vivo at 0.274 mg/kg: 274 mcg/kg i.v.; for inhibition in vivo at 0.0012 mg/kg: 1.2 mcg/kg i.v.; for inhibition in vivo at 0.006 mg/kg: 6.0 mcg/kg i.v.; for inhibition in vivo at 0.025 mg/kg: 25 mcg/kg i.v.; for inhibition in vivo at 0.008 mg/kg: 8 mcg/kg i.v.; for inhibition in vivo at 0.032 mg/kg: 32 mcg/kg i.v.; for inhibition in vivo at 0.128 mg/kg: 128 mcg/kg i.v. The gist of the method: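 Pentobarbital-anesthetized (30 mg/kg i.v.), open-chest, artificially ventilated dogs were given i.v. carbachol (4-6 µg/kg) or histamine diphosphate (35-45 µg/kg). Test compound was given i.v. mixed with, after, or 1-10 min before the constrictor.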

The test system of experiment [3] is guinea pig bronchioles constricted by carbachol. The experiment can be described thus: Bronchodilator Test Method II, in vitro perfused guinea pig lung. On the procedure:
In this method bronchodilator activity in vitro was determined by testing the effect of graded doses of the test compounds on guinea pig bronchioles constricted by carbachol, using the technique reported by Sollman and von Oettingen, Proc. Soc, Exp. Biol. Med., 25,692 (1928) as modified by Tainter, Pedden, and James, J. Pharm. Exp. Ther., 51, 371 (1934) and by Luduena, von Euler, Tullar, and Lands, Arch. intern. Pharmacol., III, 392 (1957).

With `Cc1cccc(C(=O)Oc2ccc(C(O)CNC(C)(C)C)cc2OC(=O)c2cccc(C)c2)c1` (stereo not drawn) [Example 112, 3,4-bis(m-toluyloxy)-alpha-(tert-butylaminomethyl)benzyl alcohol], the inhibition in vivo at 0.068 mg/kg in experiment [1] (5 min, 5 min) stood at 50%; in experiment [1] (10 min, 10 min), 0%; in experiment [2] (5 min, 5 min) it was 38%; in experiment [2] (0.5 h, 30 min), 43%; in experiment [2] (1 h, 60 min), 27%. Also, the inhibition in vivo at 0.136 mg/kg was found to be 42% in experiment [1] (5 min, 5 min); 59% in experiment [1] (10 min, 10 min); 67% in experiment [1] (0.5 h, 30 min); 53% in experiment [1] (1 h, 60 min); 0% in experiment [1] (2 h, 120 min). The inhibition in vivo at 0.137 mg/kg was found to be 80% in experiment [2] (5 min, 5 min); 60% in experiment [2] (0.5 h, 30 min); 50% in experiment [2] (1 h, 60 min); 37% in experiment [2] (2 h, 120 min); 8% in experiment [2] (3 h, 180 min). The inhibition in vivo at 0.274 mg/kg in experiment [2] (5 min, 5 min) came to 80%; in experiment [2] (0.5 h, 30 min), 74%; in experiment [2] (1 h, 60 min), 57%; in experiment [2] (2 h, 120 min), 54%; in experiment [2] (3 h, 180 min) it was 33%; in experiment [2] (4 h, 240 min) it was 38%. For the same compound, in experiment [2] (4.5 h, 270 min), the inhibition in vivo at 0.274 mg/kg was 25%. Further, the ED50 in experiment [3] (carbachol (Doryl) 1:5 million) is 4.4 µg (base). The “Duration, Mean” value in experiment [3] (dose 10 mcg (base)) was 104.1 ± 34.9 min.

As for `CC(=O)Oc1ccc(C(O)CNC(C)(C)C)cc1OC(=O)c1ccccc1C` (stereo not drawn) [Example 147, 3-(o-toluyloxy)-4-acetoxy-alpha-(tert-butylaminomethyl)benzyl alcohol methanesulfonate], the inhibition in vivo at 0.0012 mg/kg was determined as 36% in experiment [2] (5 min, 5 min); 3% in experiment [2] (0.5 h, 30 min); 0% in experiment [2] (1 h, 60 min). Besides, the inhibition in vivo at 0.006 mg/kg in experiment [2] (5 min, 5 min) stood at 77%; in experiment [2] (0.5 h, 30 min), 9%; in experiment [2] (1 h, 60 min) it was 0%. Further, the inhibition in vivo at 0.025 mg/kg stood at 100% in experiment [2] (5 min, 5 min); 32% in experiment [2] (0.5 h, 30 min); 12% in experiment [2] (1 h, 60 min); 4% in experiment [2] (2 h, 120 min). For the same compound, the ED50 in experiment [3] (Doryl conc. 1:10 million) was 1.9 µg (base). The “Duration, Mean” value in experiment [3] (dose 5 mcg (base), Doryl conc. 1:10 million) amounted to 15.9 ± 3.3 min.

Turning to `CC(=O)OCc1cc(C(O)CNC(C)(C)C)ccc1OC(=O)c1ccc(C)cc1` (stereo not drawn) [Example 150, 3-acetoxymethyl-4-(p-toluyloxy)-alpha-(tert-butylaminomethyl)benzyl alcohol methanesulfonate], the inhibition in vivo at 0.032 mg/kg in experiment [1] (5 min, 5 min) amounted to 12%; in experiment [1] (0.5 h, 30 min) it was 12%; in experiment [1] (1 h, 60 min), 12%; in experiment [1] (2 h, 120 min), 0%; in experiment [1] (3 h, 180 min) it was 0%; in experiment [2] (5 min, 5 min), 64%. For the same compound, the inhibition in vivo at 0.032 mg/kg in experiment [2] (0.5 h, 30 min) turned out to be 66%; in experiment [2] (1 h, 60 min), 54%; in experiment [2] (2 h, 120 min), 40%; in experiment [2] (3 h, 180 min), 30%; in experiment [2] (4 h, 240 min) it was 0%. For the same compound, the inhibition in vivo at 0.128 mg/kg in experiment [1] (5 min, 5 min) was determined as 68%; in experiment [1] (0.5 h, 30 min), 68%; in experiment [1] (1 h, 60 min), 61%; in experiment [1] (2 h, 120 min) it was 61%; in experiment [1] (3 h, 180 min), 45%; in experiment [1] (4 h, 240 min), 39%. The inhibition in vivo at 0.128 mg/kg is 85% in experiment [2] (5 min, 5 min); 87% in experiment [2] (0.5 h, 30 min); 67% in experiment [2] (1 h, 60 min); 60% in experiment [2] (2 h, 120 min); 52% in experiment [2] (3 h, 180 min); 24% in experiment [2] (4 h, 240 min). Moreover, the inhibition in vivo at 0.008 mg/kg in experiment [2] (5 min, 5 min) came to 42%; in experiment [2] (0.5 h, 30 min), 37%; in experiment [2] (1 h, 60 min), 44%; in experiment [2] (2 h, 120 min), 44%; in experiment [2] (3 h, 180 min), 32%; in experiment [2] (4 h, 240 min), 20%. In experiment [3] (carbachol (Doryl) 1:5 million), the “ED50 (printed in brackets, footnote **ED50)” value is 9.3 µg (base). In addition, the “Duration, Mean” value in experiment [3] (dose 10 mcg (base)) is reported as 25.5 ± 16.2 min.
